EP0530446A2, “Use of sulfur containing carboxylic acids for combatting pathophysiologic excitatory disorders and related diseases as well as allergic diseases and their preparation as medicament” (ASTA Medica Aktiengesellschaft, priority 1991, dated 1993)

Legend:
[1] = tested on: PAF (Platelet-activating-Factor)-Acether-Ödem; test: PAF-acether paw oedema in the rat; type: in vivo, Ratte; settings: 0.5 h before PAF-acether 2 ug/animal subplantar, oedema read 1 h later
Description: Die antiallergische Wirkung wird unter anderem durch Untersuchungen im PAF (Platelet-activating-Factor)-Acether-Ödem an der Ratte belegt.
Prinzip der Methode ist es, durch subplantare Injektion von PAF-Acether 2 ug/Tier ein lokal begrenztes Ödem beziehungsweise eine Entzündung an der Rattenpfote zu erzeugen. Die Untersuchungen werden in Anlehnung an die Methode nach SWINGLE und REITER (Agents and actions, 18, 358-365, (1986)) durchgeführt. Die Tiere erhalten die Prüfsubstanzen 0,5 Stunden vor der Auslösung des Ödems verabreicht. 1 Stunde danach wird das Ödem plethysmographisch ermittelt.

EEG der Ratte = test: Tele-Stereo-EEG in the rat: prevention of EEG changes caused by hypoglycaemic or ischaemic insult; type: in vivo; settings: 30 mg/kg i.p., compared with pre-dose value (Vorwert)
Description: Die erfindungsgemäßen Verbindungen der Formel zeigen beispielsweise im Modell zum Nachweis der Prevention der durch hypoglykämischen beziehungsweise ischämischen Insult verursachte Veränderungen im EEG der Ratte (im Vergleich zum Vorwert) bei der parenteralen Applikation (i.p. = intraperitoneal) bei 30 mg/kg (i.p.) des Racemats der alpha-Liponsäure 118 %, bei 30 mg/kg i.p. des (+)-Enantiomers 157 % und bei 30 mg/kg i.p. des (-)-Enantiomers 85 % Änderung der Leistungsdichte des beta-2-Bandes im frontalen Kortex.
Diese Untersuchung erfolgte analog der Methode Dimpfel et al, Neuropsychobiology 16: 163 - 168, (1986) mit der Änderung, daß die Ableitung vom Hippokampus anstelle des Thalamus erfolgt. (Radioelectroencephalography (Tele-Stereo-EEG) in the rat as a pharmacological model to differentiate the central action of flupirtine from that of opiates, diazepam and phenobarbital)
Männliche Fischer-344 Ratten wurden im Alter von 4 bis 5 Monaten 4 bipolar konzentrische Elektroden zusammen mit einem Mikrostecker auf einer gemeinsamen Basisplatte implantiert. Der Stecker diente der Aufnahme eines 4-Kanal-Senders zur telemetrischen Übertragung der aus frontalem Kortex, Hippokampus, Striatum und Formatio Reticularis abgeleiteten Feldpotentiale. Die Signale wurden auf einem Pro Science Computer System in Echtzeit einer Fast Fourier Transformation unterworfen und die Leistungsdichtespektren jeweils über 15 Minuten gemittelt. Die Unterteilung der Spektren in 6 verschiedene Frequenzbereiche erlaubte die Erfassung pharmakonspezifischer Veränderungen in Bezug auf die jeweils vor der Applikation gemessenen Vorwerte innerhalb dieser Frequenzbänder.
Zum Applikationsprotokoll der Substanzen: Die Substanzen wurden intraperitoneal 45 Minuten nach Beginn der Messungen (Vorwert) injiziert. Fünf Minuten später wurden die Messungen wieder gestartet, mindestens über die nächsten 2 Stunden kontinuierlich analysiert und in 15-minütigen Perioden zusammengefaßt. Die Testsubstanzen (zum Beispiel Thioctsäure) wurden in einer Dosierung von 30 mg/kg appliziert. […]

[2] = tested on: Hippocampusschnitt-Präparat von morphiumabhängigen Ratten; test: Hippocampal slice preparation of morphine-dependent rats after 16 h withdrawal, excitability at decreasing Mg++; settings: slices 16 h after morphine withdrawal (2 mg/kg s.c. twice daily for 2 weeks), tested at 100 µM
Description: Die bei Ratten 16 Stunden nach dem Entzug von Morphium (2 mg/kg Morphium subcutan, 2 x täglich über 2 Wochen lang) aus dem Hippocampus entnommenen Präparate wurden abnehmenden Magnesiumkonzentrationen im Superfusionsmedium ausgesetzt, um Platizitätsveränderungen bei der Erregbarkeit der Pyramidenzellen nachweisen zu können. Die elektrisch ausgelösten und spontanen Entladungen wurden in Abwesenheit und Gegenwart der S(-)-Form der a-Liponsäure beobachtet. […] Hierdurch ergibt sich eine Anwendung/Verwendung von a-Liponsäure bei Entziehungserscheinungen bei Drogenabhängigkeit.
Zwei Gruppen ausewachsener, männlicher CD-Ratten (Charles River Wiga) erhielten handelübliches Rattenfutter ad libitum. In den beiden Versuchwochen erhielten die Tiere der ersten Gruppe zweimal täglich 2 mg/kg Morphium. Der Kontrollgruppe wurde Kochsalzlösung injiziert. Das Körpergewicht wurde täglich registriert. 16 Stunden vor Beginn der Messung der Erregbarkeit ex vivo erhielten die mit Morphium behandelten Tiere keine Injektion mehr, um den Entzug einzleiten.
Die Tiere wurden in leichter Narkose ausgeblutet, das Gehirn wurde in toto entnommen und die Formatio hippocampi unter stereomikroskopischer Kontrolle isoliert. […]

[3] = tested on: Hippocampusschnitt-Präparat von ethanolabhängigen Ratten; test: Hippocampal slice preparation of ethanol-dependent rats after 16 h withdrawal, excitability at decreasing Mg++; settings: slices 16 h after ethanol withdrawal (5 g/kg/day for 2 weeks), tested at 246 pg/ml
Description: Die bei Ratten 16 Stunden nach dem Absetzen von Ethanol (5 g/kg/Tag Ethanol über einen Zeitraum von 2 Wochen) aus dem Hippocampus entnommenen Präparate wurden abnehmenden Magnesiumkonzentrationen im Superfusionsmedium ausgesetzt, um Plasizitätsveränderungen bei der Erregbarkeit der Pyramidenzellen nachweisen zu können. Die elektrisch ausgelösten und spontanen Entladungen wurden in Abwesenheit und Gegenwart der S(-)-Form der a-Liponsäure beobachtet.
Zwei Gruppen ausgewachsener, männlicher CD-Ratten (Charles River Wiga) erhielten handelsübliches Rattenfutter ad libitum. Das Trinkwasser wurde durch den Zusatz von 1 g Glukose/Liter gesüßt. Eine der Gruppen erhielt Wasser, das 5 % Ethanol enthielt. Die von den Tieren aufgenommene Wassermenge wurde täglich bestimmt und betrug in beiden Gruppen durchschnittlich 40 ml. Folglich nahm die Ethanolgruppe während des zweiwöchigen Versuches - ausgehend von ihrem durchschnittlichen Gewicht - innerhalb von 24 Stunden etwa 5 g/kg Ethanol auf.
Den Tieren wurde das modifizierte Trinkwasser über einen Zeitraum von 2 Wochen verabreicht. Außerdem wurde das Körpergewicht täglich ermittelt, wobei zwischen den beiden Gruppen keine Differenz beobachtet werden konnte. 16 Stunden vor Beginn der Messung der Erregbarkeit ex vivo erhielten die mit dem Ethanol behandelten Tiere ebenfalls glukosehaltiges Trinkwasser, um den Entzug einzuleiten. […]

SMILES | Ödemhemmung in % ([1]; 25 mg/kg intraperitoneal) | Ödemhemmung in % ([1]; 50 mg/kg intraperitoneal) | Änderung der Leistungsdichte des beta-2-Bandes im frontalen Kortex (EEG der Ratte) | spontane Entladungen ([2]; decreasing Mg++) | Spitzenamplituden der Population ([2]; lower Mg++ concentrations) | ausgelöste Entladungen [3] | Ödemhemmung in % ([1]; 200 mg/kg intraperitoneal)
O=C(O)CCCCC1CCSS1 (racemic) [α-Liponsäure, reference compound] | 14% | 16% | 118% |  |  |  | 
O=C(O)CCCC[C@@H]1CCSS1 [(+)-Enantiomers, R(+)-a-Liponsäure] |  |  | 157% |  |  |  | 
O=C(O)CCCC[C@H]1CCSS1 [(-)-Enantiomers, S(-)-a-Liponsäure] |  |  | 85% | abzuschwächen | auf Normalwerte zu senken | vollständige Dämpfung | 
O=C(O)CCCCC(S)CCS (stereo not shown) [Dihydroliponsäure, 6,8-Dimercapto-octansäure] |  | 63% |  |  |  |  | 73%
